Among the data in ChEMBL document CHEMBL2311264, “Synthesis and anticancer activity of heteroaromatic linked 4β-amido podophyllotoxins as apoptotic inducing agents” (Bioorg Med Chem Lett, 2013) are IC50 and Activity values, retold here.

One assay concerns ACHN. The assay is described as follows: Cytotoxicity against human ACHN cells […] by MTT assay. Format: functional, cell-based. (In general: Tetrazolium assays rely on reduction of a dye to a coloured formazan, in cell work by metabolically active cells.)
For another assay, the system named is HeLa. The assay is described as follows: Cytotoxicity against human HeLa cells […] by MTT assay. Format: functional, cell-based.
In the next assay the test system is B16. The assay is described as follows: Cytotoxicity against mouse B16 cells […] by MTT assay. In kind it is functional, cell-based.
In assay [1] the test system is A549. The assay is described as follows: Cytotoxicity against human A549 cells […] by MTT assay. Format: functional, cell-based.
The subject of the next assay is HT-29. The assay is described as follows: Cytotoxicity against human HT-29 cells after 72 hrs by MTT assay. Format: functional, cell-based. The conditions noted are these: HT-29, 72 h.
For assay [2], the system named is A549. The assay is described as follows: Induction of cell cycle arrest in human A549 cells assessed as S phase cells at 1 uM by FACS analysis (reference value: 3.69%). Format: functional.
The subject of assay [3] is A549. The assay is described as follows: Induction of cell cycle arrest in human A549 cells assessed as sub G1 phase cells at 1 uM by FACS analysis (reference value: 1.08%). Format: functional. (In flow cytometry, cells or beads pass a laser one at a time.)
For assay [4], the system named is A549. The assay is described as follows: Induction of cell cycle arrest in human A549 cells assessed as G1 phase cells at 1 uM by FACS analysis (reference value: 85.33%). In kind it is functional.
Assay [5] relates to A549. The assay is described as follows: Induction of cell cycle arrest in human A549 cells assessed as G2/M phase cells at 1 uM by FACS analysis (reference value: 9.89%). Format: functional.

What is called IC50 is the concentration needed to halve the response being measured. As to `COc1cc([C@@H]2c3cc4c(cc3[C@@H](NC(=O)c3cc(-c5ccc(C)cc5)on3)[C@H]3COC(=O)[C@H]23)OCO4)cc(OC)c1OC`, the IC50 in the assay with ACHN was 28.5 µM; with HeLa, 5.26 µM; with B16 it was 20.3 µM; in the assay with A549 [1], 24.7 µM; with HT-29 it was 27.9 µM.

`COc1ccc(-c2cc(C(=O)N[C@@H]3c4cc5c(cc4[C@@H](c4cc(OC)c(OC)c(OC)c4)[C@H]4C(=O)OC[C@@H]43)OCO5)n[nH]2)cc1OC`: the half-inhibitory concentration (IC50) was 31.6 µM with ACHN; 25.1 µM in the assay on HeLa; 45.3 µM in the assay on B16; 39.5 µM in the assay on A549 [1]; 36.3 µM in the assay with HT-29.

`COc1cc([C@@H]2c3cc4c(cc3[C@@H](NC(=O)c3cc(-c5ccc(F)cc5)on3)[C@H]3COC(=O)[C@H]23)OCO4)cc(OC)c1OC`: the IC50 was found to be 15.6 µM with ACHN; 16.6 µM in the assay on HeLa; 23.5 µM with B16; 20.6 µM in the assay on A549 [1]; 19.9 µM with HT-29.

Take `COc1cc([C@@H]2c3cc4c(cc3[C@@H](NC(=O)c3cc(-c5ccc([N+](=O)[O-])cc5)n5nc(-c6ccccc6)cc5n3)[C@H]3COC(=O)[C@H]23)OCO4)cc(OC)c1OC`: the IC50 with ACHN was 17.7 µM; with HeLa it was 12.1 µM; in the assay on B16 it was 18.4 µM; with A549 [1], 10.6 µM; in the assay on HT-29, 10.9 µM.

Take `COc1cc(-c2cc(C(=O)N[C@@H]3c4cc5c(cc4[C@@H](c4cc(OC)c(OC)c(OC)c4)[C@H]4C(=O)OC[C@@H]43)OCO5)nc3cc(-c4ccccc4)nn23)cc(OC)c1OC`: the IC50 in the assay on ACHN amounted to 13.8 µM; in the assay on HeLa, 13.7 µM; in the assay with B16 it was 12.7 µM; in the assay with A549 [1], 9.5 µM; with HT-29, 9.2 µM.

`COc1cc(-c2cc(C(=O)N[C@@H]3c4cc5c(cc4[C@@H](c4cc(OC)c(OC)c(OC)c4)[C@H]4C(=O)OC[C@@H]43)OCO5)no2)cc(OC)c1OC`: the IC50 with ACHN was 34.2 µM; in the assay with HeLa, 18.4 µM; in the assay on B16 it was 23.4 µM; with A549 [1], 19.8 µM; in the assay with HT-29, 25.1 µM.

Regarding `COc1ccc(-c2cc(C(=O)N[C@@H]3c4cc5c(cc4[C@@H](c4cc(OC)c(OC)c(OC)c4)[C@H]4C(=O)OC[C@@H]43)OCO5)n[nH]2)cc1`, the IC50 came to 11.6 µM in the assay on ACHN; 9.4 µM in the assay with HeLa; 9.5 µM in the assay on B16; 5.3 µM with A549 [1]; 8.4 µM with HT-29.

Consider `COc1ccc(-c2cc(C(=O)N[C@@H]3c4cc5c(cc4[C@@H](c4cc(OC)c(OC)c(OC)c4)[C@H]4C(=O)OC[C@@H]43)OCO5)no2)cc1OC`, for which the IC50 in the assay with ACHN was found to be 23.1 µM; in the assay with HeLa it was 13.3 µM; with B16, 12.7 µM; in the assay on A549 [1], 23.1 µM; in the assay with HT-29 it was 38.4 µM.

With `COc1cc([C@@H]2c3cc4c(cc3[C@@H](NC(=O)c3cc(-c5ccc(F)cc5)[nH]n3)[C@H]3COC(=O)[C@H]23)OCO4)cc(OC)c1OC`, the IC50 with ACHN is 18.3 µM; in the assay on HeLa, 15.2 µM; with B16, 26.1 µM; in the assay with A549 [1], 21.2 µM; with HT-29, 26.3 µM.

Consider `COc1cc([C@@H]2c3cc4c(cc3[C@H](O)[C@H]3COC(=O)[C@H]23)OCO4)cc(OC)c1OC` [PODOFILOX], for which the IC50 came out at 2.3 µM in the assay on ACHN; 2.8 µM with HeLa; 2.5 µM in the assay with B16; 3.6 µM with A549 [1]; 1.02 µM in the assay on HT-29. Further, the Activity in the assay on A549 [2] stood at 3.67%; in the assay on A549 [3] it was 1.83%; with A549 [4], 78.31%; in the assay on A549 [5], 16.24%.

As for `COc1ccc(-c2cc(C(=O)N[C@@H]3c4cc5c(cc4[C@@H](c4cc(OC)c(OC)c(OC)c4)[C@H]4C(=O)OC[C@@H]43)OCO5)no2)cc1`, the IC50 in the assay with ACHN was 30.3 µM; in the assay on HeLa it was 11.2 µM; with B16 it was 22.5 µM; in the assay on A549 [1], 38.1 µM; in the assay with HT-29 it was 32.1 µM.

On to `COc1cc([C@@H]2c3cc4c(cc3[C@@H](NC(=O)c3cc(-c5ccc([N+](=O)[O-])cc5)on3)[C@H]3COC(=O)[C@H]23)OCO4)cc(OC)c1OC`, for which the IC50 was 26.4 µM in the assay with ACHN; 7.5 µM with HeLa; 16.8 µM with B16; 17.9 µM with A549 [1]; 22.6 µM in the assay on HT-29.

Regarding `COc1cc([C@@H]2c3cc4c(cc3[C@@H](NC(=O)c3cc(-c5ccc(C)cc5)[nH]n3)[C@H]3COC(=O)[C@H]23)OCO4)cc(OC)c1OC`, the IC50 came to 25.8 µM in the assay on ACHN; 16.9 µM in the assay with HeLa; 16.6 µM in the assay on B16; 22.3 µM in the assay with A549 [1]; 26.5 µM in the assay on HT-29.

Regarding `COc1cc([C@@H]2c3cc4c(cc3[C@@H](NC(=O)c3cc(-c5ccccc5)on3)[C@H]3COC(=O)[C@H]23)OCO4)cc(OC)c1OC`, the IC50 with ACHN was 17.5 µM; in the assay on HeLa, 5.9 µM; in the assay with B16, 16.3 µM; with A549 [1], 13.6 µM; in the assay on HT-29, 19.5 µM.

`COc1ccc(-c2cc(C(=O)N[C@@H]3c4cc5c(cc4[C@@H](c4cc(OC)c(OC)c(OC)c4)[C@H]4C(=O)OC[C@@H]43)OCO5)nc3cc(-c4ccccc4)nn23)cc1OC`: the concentration for half-maximal inhibition (IC50) in the assay with ACHN turned out to be 19.3 µM; in the assay with HeLa, 14.4 µM; with B16 it was 10.7 µM; with A549 [1], 17.3 µM; in the assay with HT-29, 14.5 µM.

On to `COc1cc([C@@H]2c3cc4c(cc3[C@@H](NC(=O)c3cc(-c5ccc(F)c(F)c5)[nH]n3)[C@H]3COC(=O)[C@H]23)OCO4)cc(OC)c1OC`, for which the 50% inhibitory concentration (IC50) in the assay with ACHN was 32.5 µM; with HeLa it was 14.9 µM; in the assay with B16, 25.6 µM; with A549 [1], 15.8 µM; with HT-29 it was 10.8 µM.

Take `COc1cc([C@@H]2c3cc4c(cc3[C@@H](NC(=O)c3cc(-c5ccc(Cl)c(Cl)c5)on3)[C@H]3COC(=O)[C@H]23)OCO4)cc(OC)c1OC`: the IC50 in the assay with ACHN amounted to 16.8 µM; in the assay with HeLa, 12.6 µM; with B16 it was 22.7 µM; with A549 [1], 31.1 µM; in the assay with HT-29, 11.2 µM.

With `COc1ccc(-c2cc(C(=O)N[C@@H]3c4cc5c(cc4[C@@H](c4cc(OC)c(OC)c(OC)c4)[C@H]4C(=O)OC[C@@H]43)OCO5)nc3cc(-c4ccccc4)nn23)cc1`, the IC50 in the assay on ACHN was found to be 17.3 µM; with HeLa, 8.9 µM; with B16 it was 18.3 µM; in the assay with A549 [1], 11.2 µM; with HT-29, 5.7 µM.

Consider `COc1cc([C@@H]2c3cc4c(cc3[C@@H](NC(=O)c3cc(-c5ccccc5)[nH]n3)[C@H]3COC(=O)[C@H]23)OCO4)cc(OC)c1OC`, for which the IC50 with ACHN came out at 30.2 µM; in the assay with HeLa, 7.5 µM; with B16, 16.3 µM; in the assay on A549 [1], 28.9 µM; in the assay with HT-29, 26.5 µM.

Consider `COc1cc([C@@H]2c3cc4c(cc3[C@@H](NC(=O)c3cc(-c5ccc(F)c(F)c5)on3)[C@H]3COC(=O)[C@H]23)OCO4)cc(OC)c1OC`, for which the IC50 is 16.4 µM in the assay with ACHN; 21.2 µM in the assay on HeLa; 27.5 µM in the assay with B16; 12.7 µM with A549 [1]; 14.1 µM in the assay with HT-29.

With `COc1cc(-c2cc(C(=O)N[C@@H]3c4cc5c(cc4[C@@H](c4cc(OC)c(OC)c(OC)c4)[C@H]4C(=O)OC[C@@H]43)OCO5)n[nH]2)cc(OC)c1OC`, the IC50 stood at 27.1 µM in the assay on ACHN; 11.5 µM with HeLa; 18.3 µM in the assay with B16; 15.2 µM in the assay on A549 [1]; 16.8 µM with HT-29.

For the molecule `COc1cc([C@@H]2c3cc4c(cc3[C@@H](NC(=O)c3cc(-c5ccc([N+](=O)[O-])cc5)[nH]n3)[C@H]3COC(=O)[C@H]23)OCO4)cc(OC)c1OC`, the IC50 in the assay with ACHN was 23.5 µM; in the assay with HeLa, 14.6 µM; in the assay on A549 [1], 19.4 µM; with HT-29, 20.6 µM.
